In US9932637B2, “Genetic polymorphisms associated with cardiovascular disorders and drug response, methods of detection and uses thereof” (CELERA CORPORATION, priority 2003, dated 2018):

System: patients with prior myocardial infarction (CARE study)
Assay: CARE: association of SNPs with pravastatin treatment in cardiovascular events prevention (logistic regression, odds ratio pravastatin vs placebo by genotype; Table 8)
Type: in vivo, human
Details: for Any Report of Stroke Prior to or During CARE, n/total (%) / Cardiovascular Mortality, n/total (%) / Fatal Atherosclerotic Cardiovascular Disease, n/total (%) / Fatal Coronary Heart Disease, n/total (%) / Fatal/Non-fatal Atherosclerotic CV Disease, n/total (%) / Total Coronary Heart Disease Events, n/total (%) / Total Mortality, n/total (%) / Hosp. for Cardiovascular Disease, n/total (%) / Total Cardiovascular Disease Events, n/total (%) / Fatal/Non-fatal MI (def & prob), n/total (%): Prava arm; for Odds ratio pravastatin vs placebo: All Patients
Description: In order to identify genetic markers associated with acute coronary events (e.g. MI, stroke, unstable angina, congestive heart failure, etc.) or response to statin treatment for the prevention of coronary events, samples from the Cholesterol and Recurrent Events (CARE) study (a randomized multicentral double-blinded trial on secondary prevention of acute coronary events with pravastatin) (Sacks et al., 1991, Am. J. Cardiol. 68: 1436-1446) were genotyped. A well-documented myocardial infarction (MI) was one of the enrollment criteria for entry into the CARE study. Patients were enrolled in the CARE trial from 80 participating study centers. […] Patients were randomized to receive either 40 mg of pravastatin once daily or a matching placebo. The primary endpoint of the trial was death from coronary heart disease and the median duration of follow-up was 5.0 years (range, 4.0 to 6.2 years). […] Secondary endpoints of other related cardiovascular or metabolic disease events, and changes in clinical variables were also recorded in pravastatin-treated and placebo groups. All individuals included in the study had signed a written informed consent form and the study protocol was approved by the respective Institutional Review Boards (IRBs).
For genotyping SNPs in CARE patient samples, DNA was extracted from blood samples using conventional DNA extraction methods such as the QIA-amp kit from Qiagen. Genotypes were obtained on an ABI PRISM® 7900HT Sequence Detection PCR system (Applied Biosystems, Foster City, Calif.) by kinetic allele-specific PCR, similar to the method described by Germer et al. (Germer S., Holland M. J., Higuchi R. 2000, Genome Res. 10: 258-266).
Statistical analysis for association of SNPs with pravastatin treatment in cardiovascular events prevention (Table 8) was carried out using an overall logistic regression model that included an intercept, a parameter for the effect of a genotype containing two rare alleles versus a genotype containing no rare alleles, a parameter for the effect of a genotype containing one rare allele versus a genotype containing no rare alleles, a parameter for the effect of use of pravastatin versus the use of placebo, and parameters for the interaction effects between SNP genotypes and pravastatin use. The test of the overall model is a chi-square test with two degrees of freedom for analyses containing all three genotypes, and one degree of freedom for analyses containing two genotypes.
Effect sizes were estimated through odds ratios (pravastatin group versus placebo) for carriers of each genotype (groups of 0, 1, and 2 minor allele carriers). The effect was considered to be significant if p-value for testing whether any of the interactions between SNP genotypes and pravastatin use were <0.05. […] Odds ratios less than one indicate that the specific SNP allele has a protective effect and odds ratios greater than one indicate that the specific SNP allele has an adverse effect.

[1] = TGFB1 hCV8708473, All Patients, 1 Rare Allele
[2] = TGFB1 hCV8708473, All Patients, 2 Rare Alleles
[3] = TGFB1 hCV22272997, All Patients, 0 Rare Alleles
[4] = TGFB1 hCV22272997, All Patients, 1 Rare Allele
[5] = TGFB1 hCV22272997, All Patients, 2 Rare Alleles
[6] = TLR5 hCV15871020, All Patients, 0 Rare Alleles
[7] = TLR5 hCV15871020, All Patients, 1 Rare Allele
[8] = TLR5 hCV15871020, All Patients, 2 Rare Alleles
[9] = TLR6 hCV1180648, All Patients, 0 Rare Alleles
[10] = TLR6 hCV1180648, All Patients, 1 Rare Allele
[11] = TLR6 hCV1180648, All Patients, 2 Rare Alleles
[12] = TNF hCV7514879, All Patients, 0 Rare Alleles
[13] = TNF hCV7514879, All Patients, 1 Rare Allele
[14] = TNF hCV7514879, All Patients, 2 Rare Alleles
[15] = VEGF hCV791476, All Patients, 0 Rare Alleles
[16] = VEGF hCV791476, All Patients, 1 Rare Allele
[17] = VEGF hCV791476, All Patients, 2 Rare Alleles

CC[C@H](C)C(=O)O[C@H]1C[C@H](O)C=C2C=C[C@H](C)[C@H](CC[C@@H](O)C[C@@H](O)CC(=O)O)[C@H]21 [pravastatin]
Any Report of Stroke Prior to or During CARE, n/total (%) [1]: (3.8%)
Cardiovascular Mortality, n/total (%) [1]: (1.7%)
Fatal Atherosclerotic Cardiovascular Disease, n/total (%) [1]: (1.7%)
Fatal Coronary Heart Disease, n/total (%) [1]: (1.2%)
Fatal/Non-fatal Atherosclerotic CV Disease, n/total (%) [1]: (27.9%)
Total Coronary Heart Disease Events, n/total (%) [1]: (23.9%)
Total Mortality, n/total (%) [1]: (3.8%)
Any Report of Stroke Prior to or During CARE, n/total (%) [2]: (3.7%)
Cardiovascular Mortality, n/total (%) [2]: (3.1%)
Fatal Atherosclerotic Cardiovascular Disease, n/total (%) [2]: (3.1%)
Fatal Coronary Heart Disease, n/total (%) [2]: (2.5%)
Fatal/Non-fatal Atherosclerotic CV Disease, n/total (%) [2]: (38.3%)
Total Coronary Heart Disease Events, n/total (%) [2]: (37.0%)
Total Mortality, n/total (%) [2]: (4.9%)
Odds ratio pravastatin vs placebo (TGFB1 hCV8708473, Any Report of Stroke Prior to or During CARE, 0 rare alleles): 1.35
Odds ratio pravastatin vs placebo (TGFB1 hCV8708473, Any Report of Stroke Prior to or During CARE, 1 rare allele): 0.68
Odds ratio pravastatin vs placebo (TGFB1 hCV8708473, Any Report of Stroke Prior to or During CARE, 2 rare alleles): 0.38
Odds ratio pravastatin vs placebo (TGFB1 hCV8708473, Cardiovascular Mortality, 0 rare alleles): 1.95
Odds ratio pravastatin vs placebo (TGFB1 hCV8708473, Cardiovascular Mortality, 1 rare allele): 0.30
Odds ratio pravastatin vs placebo (TGFB1 hCV8708473, Cardiovascular Mortality, 2 rare alleles): 0.48
Odds ratio pravastatin vs placebo (TGFB1 hCV8708473, Fatal Atherosclerotic Cardiovascular Disease, 0 rare alleles): 1.90
Odds ratio pravastatin vs placebo (TGFB1 hCV8708473, Fatal Atherosclerotic Cardiovascular Disease, 1 rare allele): 0.30
Odds ratio pravastatin vs placebo (TGFB1 hCV8708473, Fatal Atherosclerotic Cardiovascular Disease, 2 rare alleles): 0.48
Odds ratio pravastatin vs placebo (TGFB1 hCV8708473, Fatal Coronary Heart Disease, 0 rare alleles): 1.79
Odds ratio pravastatin vs placebo (TGFB1 hCV8708473, Fatal Coronary Heart Disease, 1 rare allele): 0.26
Odds ratio pravastatin vs placebo (TGFB1 hCV8708473, Fatal Coronary Heart Disease, 2 rare alleles): 0.49
Odds ratio pravastatin vs placebo (TGFB1 hCV8708473, Fatal/Non-fatal Atherosclerotic CV Disease, 0 rare alleles): 0.94
Odds ratio pravastatin vs placebo (TGFB1 hCV8708473, Fatal/Non-fatal Atherosclerotic CV Disease, 1 rare allele): 0.59
Odds ratio pravastatin vs placebo (TGFB1 hCV8708473, Fatal/Non-fatal Atherosclerotic CV Disease, 2 rare alleles): 0.81
Odds ratio pravastatin vs placebo (TGFB1 hCV8708473, Total Coronary Heart Disease Events, 0 rare alleles): 0.91
Odds ratio pravastatin vs placebo (TGFB1 hCV8708473, Total Coronary Heart Disease Events, 1 rare allele): 0.58
Odds ratio pravastatin vs placebo (TGFB1 hCV8708473, Total Coronary Heart Disease Events, 2 rare alleles): 1.00
Odds ratio pravastatin vs placebo (TGFB1 hCV8708473, Total Mortality, 0 rare alleles): 1.50
Odds ratio pravastatin vs placebo (TGFB1 hCV8708473, Total Mortality, 1 rare allele): 0.48
Odds ratio pravastatin vs placebo (TGFB1 hCV8708473, Total Mortality, 2 rare alleles): 0.65
Cardiovascular Mortality, n/total (%) [3]: (5.6%)
Fatal Atherosclerotic Cardiovascular Disease, n/total (%) [3]: (5.6%)
Fatal Coronary Heart Disease, n/total (%) [3]: (5.2%)
Total Coronary Heart Disease Events, n/total (%) [3]: (32.5%)
Total Mortality, n/total (%) [3]: (7.4%)
Cardiovascular Mortality, n/total (%) [4]: (2.5%)
Fatal Atherosclerotic Cardiovascular Disease, n/total (%) [4]: (2.4%)
Fatal Coronary Heart Disease, n/total (%) [4]: (2.0%)
Total Coronary Heart Disease Events, n/total (%) [4]: (25.0%)
Total Mortality, n/total (%) [4]: (4.6%)
Cardiovascular Mortality, n/total (%) [5]: (2.5%)
Fatal Atherosclerotic Cardiovascular Disease, n/total (%) [5]: (2.5%)
Fatal Coronary Heart Disease, n/total (%) [5]: (2.0%)
Total Coronary Heart Disease Events, n/total (%) [5]: (33.2%)
Total Mortality, n/total (%) [5]: (3.7%)
Fatal/Non-fatal Atherosclerotic CV Disease, n/total (%) [6]: (34.4%)
Hosp. for Cardiovascular Disease, n/total (%) [6]: (40.8%)
Total Cardiovascular Disease Events, n/total (%) [6]: (42.0%)
Total Coronary Heart Disease Events, n/total (%) [6]: (30.5%)
Fatal/Non-fatal Atherosclerotic CV Disease, n/total (%) [7]: (32.1%)
Hosp. for Cardiovascular Disease, n/total (%) [7]: (40.8%)
Total Cardiovascular Disease Events, n/total (%) [7]: (41.8%)
Total Coronary Heart Disease Events, n/total (%) [7]: (27.2%)
Fatal/Non-fatal Atherosclerotic CV Disease, n/total (%) [8]: (17.6%)
Hosp. for Cardiovascular Disease, n/total (%) [8]: (14.7%)
Total Cardiovascular Disease Events, n/total (%) [8]: (17.6%)
Total Coronary Heart Disease Events, n/total (%) [8]: (11.8%)
Odds ratio pravastatin vs placebo (TLR5 hCV15871020, Fatal/Non-fatal Atherosclerotic CV Disease, 0 rare alleles): 0.84
Odds ratio pravastatin vs placebo (TLR5 hCV15871020, Fatal/Non-fatal Atherosclerotic CV Disease, 1 rare allele): 0.68
Odds ratio pravastatin vs placebo (TLR5 hCV15871020, Fatal/Non-fatal Atherosclerotic CV Disease, 2 rare alleles): 0.14
Odds ratio pravastatin vs placebo (TLR5 hCV15871020, Hosp. for Cardiovascular Disease, 0 rare alleles): 0.81
Odds ratio pravastatin vs placebo (TLR5 hCV15871020, Hosp. for Cardiovascular Disease, 1 rare allele): 0.72
Odds ratio pravastatin vs placebo (TLR5 hCV15871020, Hosp. for Cardiovascular Disease, 2 rare alleles): 0.09
Odds ratio pravastatin vs placebo (TLR5 hCV15871020, Total Cardiovascular Disease Events, 0 rare alleles): 0.81
Odds ratio pravastatin vs placebo (TLR5 hCV15871020, Total Cardiovascular Disease Events, 1 rare allele): 0.70
Odds ratio pravastatin vs placebo (TLR5 hCV15871020, Total Cardiovascular Disease Events, 2 rare alleles): 0.10
Odds ratio pravastatin vs placebo (TLR5 hCV15871020, Total Coronary Heart Disease Events, 0 rare alleles): 0.86
Odds ratio pravastatin vs placebo (TLR5 hCV15871020, Total Coronary Heart Disease Events, 1 rare allele): 0.64
Odds ratio pravastatin vs placebo (TLR5 hCV15871020, Total Coronary Heart Disease Events, 2 rare alleles): 0.10
Cardiovascular Mortality, n/total (%) [9]: (3.5%)
Fatal Atherosclerotic Cardiovascular Disease, n/total (%) [9]: (3.5%)
Fatal Coronary Heart Disease, n/total (%) [9]: (3.3%)
Cardiovascular Mortality, n/total (%) [10]: (2.5%)
Fatal Atherosclerotic Cardiovascular Disease, n/total (%) [10]: (2.5%)
Fatal Coronary Heart Disease, n/total (%) [10]: (1.9%)
Cardiovascular Mortality, n/total (%) [11]: (6.9%)
Fatal Atherosclerotic Cardiovascular Disease, n/total (%) [11]: (6.5%)
Fatal Coronary Heart Disease, n/total (%) [11]: (6.2%)
Fatal/Non-fatal MI (def & prob), n/total (%) [12]: (10.5%)
Hosp. for Cardiovascular Disease, n/total (%) [12]: (40.9%)
Total Cardiovascular Disease Events, n/total (%) [12]: (42.4%)
Total Mortality, n/total (%) [12]: (6.0%)
Fatal/Non-fatal MI (def & prob), n/total (%) [13]: (7.7%)
Hosp. for Cardiovascular Disease, n/total (%) [13]: (38.9%)
Total Cardiovascular Disease Events, n/total (%) [13]: (39.4%)
Total Mortality, n/total (%) [13]: (4.7%)
Fatal/Non-fatal MI (def & prob), n/total (%) [14]: (7.1%)
Hosp. for Cardiovascular Disease, n/total (%) [14]: (35.7%)
Total Cardiovascular Disease Events, n/total (%) [14]: (35.7%)
Total Mortality, n/total (%) [14]: (3.6%)
Odds ratio pravastatin vs placebo (TNF hCV7514879, Fatal/Non-fatal MI (def & prob), 0 rare alleles): 0.80
Odds ratio pravastatin vs placebo (TNF hCV7514879, Fatal/Non-fatal MI (def & prob), 1 rare allele): 0.44
Odds ratio pravastatin vs placebo (TNF hCV7514879, Fatal/Non-fatal MI (def & prob), 2 rare alleles): 0.25
Odds ratio pravastatin vs placebo (TNF hCV7514879, Hosp. for Cardiovascular Disease, 0 rare alleles): 0.79
Odds ratio pravastatin vs placebo (TNF hCV7514879, Hosp. for Cardiovascular Disease, 1 rare allele): 0.76
Odds ratio pravastatin vs placebo (TNF hCV7514879, Hosp. for Cardiovascular Disease, 2 rare alleles): 0.20
Odds ratio pravastatin vs placebo (TNF hCV7514879, Total Cardiovascular Disease Events, 0 rare alleles): 0.79
Odds ratio pravastatin vs placebo (TNF hCV7514879, Total Cardiovascular Disease Events, 1 rare allele): 0.73
Odds ratio pravastatin vs placebo (TNF hCV7514879, Total Cardiovascular Disease Events, 2 rare alleles): 0.20
Odds ratio pravastatin vs placebo (TNF hCV7514879, Total Mortality, 0 rare alleles): 1.11
Odds ratio pravastatin vs placebo (TNF hCV7514879, Total Mortality, 1 rare allele): 0.57
Odds ratio pravastatin vs placebo (TNF hCV7514879, Total Mortality, 2 rare alleles): 0.19
Cardiovascular Mortality, n/total (%) [15]: (4.2%)
Fatal Atherosclerotic Cardiovascular Disease, n/total (%) [15]: (4.1%)
Cardiovascular Mortality, n/total (%) [16]: (2.4%)
Fatal Atherosclerotic Cardiovascular Disease, n/total (%) [16]: (2.4%)
Cardiovascular Mortality, n/total (%) [17]: (2.0%)
Fatal Atherosclerotic Cardiovascular Disease, n/total (%) [17]: (2.0%)
odds ratio, pravastatin group vs control group, adverse coronary event (hCV2741051, one rare allele): 0.43
odds ratio, stroke in the pravastatin treated group (hCV2741051, one rare allele): 0.21
odds ratio, pravastatin group vs control group, adverse coronary event (hCV2741051, two rare alleles): 0.26
odds ratio, stroke in the pravastatin treated group (hCV2741051, two rare alleles): 0.23
